Tests used:
1b (BK) NS5BΔ21 = target: T1, 1b (BK) NS5BΔ21 (Hepatitis C virus genotype 1b, UniProt P26663); assay: HCV Polymerase Inhibition Assay; type: biochemical; settings: in each of the HCV assays tested (polymerase and replicon assays)
T1 construct: 100 nM, 1b (BK) NS5BΔ21
Procedure: HCV polymerase reactions were carried out using a modified method of Howe et al., Antimicrobial Agents and Chemotherapy 2004 48(12): 4813-4821. Reactions contained a final concentration of, 0.5% DMSO, 100 nM, 1b (BK) NS5BΔ21, 20 mM Tris-HCl pH 7.5, 5 mM MgCl2, 5 mM MnCl2, 3 mM DTT, 0.05% BSA, 0.2 U/μL RNasin, 10 μg/mL Poly(rC) template, GTP (at Km) and 0.05 μCi/μL ^33P-GTP in a total reaction volume of 50 μL. Compounds were tested in a three fold dilution series, for example starting from 50 μM. Reactions were initiated with the addition of GTP and terminated after 90 min with 50 μL ice cold 0.2 M EDTA. Terminated reactions were transferred to DEAE 96-well filter plates, unincorporated nucleotides washed from the filters and 50 μL scintillation fluid added prior to reading on a scintillation counter. The compound concentration that reduced ^33P-GTP incorporation by 50% (IC50) was calculated using non-linear regression.

[1] = Aqueous Solubility (laser nephelometry); type: physicochemical; settings: at both pH2 and pH6.5; good solubility when >25 ug/mL
Procedure: Test compounds prepared in DMSO were screened in duplicate over a range of concentrations (1.6-100 ug/mL) in different aqueous media (for example a pH6.5 buffers which are relevant to the stomach and upper regions of the small intestine and therefore important when predicting the amount of drug likely to be in solution following oral administration). Test compounds were serially diluted in 100% DMSO ranging from 10-0.16 mg/mL. These titrated DMSO stocks were then further diluted 1:100 with assay buffer and added to test plates (UV Star Griener 384 well plates), maintaining the DMSO concentration at 1%.

T1 sequence (P26663 2420-2989, stated change not applied): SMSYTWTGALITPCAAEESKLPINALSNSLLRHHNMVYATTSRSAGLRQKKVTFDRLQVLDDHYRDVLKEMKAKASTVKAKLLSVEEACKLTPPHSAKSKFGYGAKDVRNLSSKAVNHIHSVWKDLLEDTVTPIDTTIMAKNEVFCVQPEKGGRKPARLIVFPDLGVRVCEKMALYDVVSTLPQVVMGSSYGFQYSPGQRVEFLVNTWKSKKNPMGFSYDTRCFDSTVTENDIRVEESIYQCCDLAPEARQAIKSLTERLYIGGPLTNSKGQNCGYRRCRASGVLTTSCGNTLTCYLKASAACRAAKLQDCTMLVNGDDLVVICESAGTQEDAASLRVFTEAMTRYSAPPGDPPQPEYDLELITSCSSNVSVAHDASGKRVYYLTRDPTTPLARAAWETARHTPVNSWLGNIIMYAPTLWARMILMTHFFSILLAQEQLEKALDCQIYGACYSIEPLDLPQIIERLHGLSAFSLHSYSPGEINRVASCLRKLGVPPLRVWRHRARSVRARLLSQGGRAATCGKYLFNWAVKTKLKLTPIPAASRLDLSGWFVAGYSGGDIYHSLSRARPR

Structure (SMILES)	times more potent than Compound A (1b (BK) NS5BΔ21)	solubility (in words) [1]
CCN(c1cc2nn(-c3ccc(C)cn3)c(C(=O)NC)c2cc1C1CC1)S(C)(=O)=O [Compound 5, 5-cyclopropyl-6-[ethyl(methylsulfonyl)amino]-N-methyl-2-(5-methylpyridin-2-yl)-2H-indazole-3-carboxamide]	at least 10 times	good solubility
CCN(c1cc2nn(-c3ccc(C)nc3)c(C(=O)NC)c2cc1C1CC1)S(C)(=O)=O [Compound A, 5-Cyclopropyl-6-[ethyl(methylsulfonyl)amino]-N-methyl-2-(6-methylpyridin-3-yl)-2H-indazole-3-carboxamide, reference compound]		very poorly soluble

Source: patent US9365554B2, “Viral polymerase inhibitors” (BIOTA SCIENTIFIC MANAGEMENT PTY LTD, priority 2012, dated 2016)
